Source: PubChem BioAssay AID330 (DTP/NCI, 2004)
“And” between values parts separate entries of the source, which are not always exact repeats. Identical values can stand only once. Toxic doses and inconclusive results are not listed.

Tested on: P388 leukemia ip, CD2F1 mice, survival T/C
Test: NCI In Vivo Anticancer Drug Screen. Data for tumor model P388 Leukemia (intraperitoneal) in CD2F1 (CDF1) mice
Settings: endpoint: median survival time, higher = longer survival
How it was run: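 Mice carrying the transplanted tumor received test compound or vehicle. Survival was recorded in each group, and the value is the treated-group measurement divided by that of the vehicle-treated control group.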

[1] = dose: 100.0 mg/kg/injection, schedule: Q01DX001 (ip), vehicle: saline with Tween-80
[2] = dose: 200.0 mg/kg/injection, schedule: Q01DX001 (ip), vehicle: saline with Tween-80
[3] = dose: 400.0 mg/kg/injection, schedule: Q01DX001 (ip), vehicle: saline with Tween-80
[4] = dose: 50.0 mg/kg/injection, schedule: Q01DX009 (ip), vehicle: Klucel (hydroxypropylcellulose) (HPC)
[5] = dose: 100.0 mg/kg/injection, schedule: Q01DX009 (ip), vehicle: Klucel (hydroxypropylcellulose) (HPC)
[6] = dose: 200.0 mg/kg/injection, schedule: Q01DX009 (ip), vehicle: Klucel (hydroxypropylcellulose) (HPC)
[7] = dose: 25.0 mg/kg/injection, schedule: Q01DX009 (ip), vehicle: saline
[8] = dose: 50.0 mg/kg/injection, schedule: Q01DX009 (ip), vehicle: saline
[9] = dose: 100.0 mg/kg/injection, schedule: Q01DX009 (ip), vehicle: saline
[10] = dose: 50.0 mg/kg/injection, schedule: Q01DX005 (ip), vehicle: saline with Tween-80
[11] = dose: 100.0 mg/kg/injection, schedule: Q01DX005 (ip), vehicle: saline with Tween-80
[12] = dose: 200.0 mg/kg/injection, schedule: Q01DX005 (ip), vehicle: saline with Tween-80
[13] = dose: 12.5 mg/kg/injection, schedule: Q01DX009 (ip), vehicle: saline with Tween-80
[14] = dose: 25.0 mg/kg/injection, schedule: Q01DX009 (ip), vehicle: saline with Tween-80
[15] = dose: 50.0 mg/kg/injection, schedule: Q01DX009 (ip), vehicle: saline with Tween-80
[16] = dose: 100.0 mg/kg/injection, schedule: Q01DX009 (ip), vehicle: saline with Tween-80
[17] = dose: 200.0 mg/kg/injection, schedule: Q01DX009 (ip), vehicle: saline with Tween-80
[18] = dose: 60.0 mg/kg/injection, schedule: Q01DX005 (ip), vehicle: saline with Tween-80
[19] = dose: 120.0 mg/kg/injection, schedule: Q01DX005 (ip), vehicle: saline with Tween-80
[20] = dose: 240.0 mg/kg/injection, schedule: Q01DX005 (ip), vehicle: saline with Tween-80
[21] = dose: 50.0 mg/kg/injection, schedule: Q04DX003 (ip), vehicle: saline
[22] = dose: 100.0 mg/kg/injection, schedule: Q04DX003 (ip), vehicle: saline
[23] = dose: 200.0 mg/kg/injection, schedule: Q04DX003 (ip), vehicle: saline

## O=[N+]([O-])c1ccc(-c2cnc3nc4[nH]c5ccccc5c4nn23)cc1
[1]
  T/C: 101 % of control
[2]
  T/C: 92 % of control
[3]
  T/C: 87 % of control

## O=C(Nc1ccc(Cc2ccc(NC(=O)Nc3cccnc3)cc2)cc1)Nc1cccnc1
[4]
  T/C: 101 % of control
[5]
  T/C: 94 % of control
[6]
  T/C: 88 % of control

## CN1CCN(CN2C(=O)C3C4C=CC(C3C2=O)C2C3C(=O)N(CN5CCN(C)CC5)C(=O)C3C42)CC1 (stereo not drawn)
dose: 6.25 mg/kg/injection, schedule: Q01DX009 (ip), vehicle: water
  T/C: 103 % of control
dose: 7.5 mg/kg/injection, schedule: Q01DX005 (ip), vehicle: water
  T/C: 100 % of control
dose: 7.5 mg/kg/injection, schedule: Q01DX009 (ip), vehicle: water
  T/C: 99 % of control
dose: 12.5 mg/kg/injection, schedule: Q01DX009 (ip), vehicle: water
  T/C: 104 % of control
dose: 15.0 mg/kg/injection, schedule: Q01DX005 (ip), vehicle: water
  T/C: 101 % of control and 96 % of control
dose: 15.0 mg/kg/injection, schedule: Q01DX009 (ip), vehicle: water
  T/C: 105 % of control
dose: 24.8 mg/kg/injection, schedule: Q01DX009 (ip), vehicle: water
  T/C: 113 % of control
[7]
  T/C: 99 % of control
dose: 25.0 mg/kg/injection, schedule: Q01DX009 (ip), vehicle: water
  T/C: 104 % of control
dose: 26.8 mg/kg/injection, schedule: Q01DX009 (ip), vehicle: water
  T/C: 106 % of control and 118 % of control
dose: 30.0 mg/kg/injection, schedule: Q01DX005 (ip), vehicle: water
  T/C: 107 % of control and 119 % of control
dose: 30.0 mg/kg/injection, schedule: Q01DX009 (ip), vehicle: water
  T/C: 116 % of control and 121 % of control
dose: 44.6 mg/kg/injection, schedule: Q01DX009 (ip), vehicle: water
  T/C: 151 % of control
[8]
  T/C: 106 % of control
dose: 60.0 mg/kg/injection, schedule: Q01DX005 (ip), vehicle: water
  T/C: 151 % of control
dose: 60.0 mg/kg/injection, schedule: Q01DX009 (ip), vehicle: water
  T/C: 165 % of control and 161 % of control
dose: 68.8 mg/kg/injection, schedule: Q01DX009 (ip), vehicle: water
  T/C: 172 % of control
dose: 74.4 mg/kg/injection, schedule: Q01DX009 (ip), vehicle: water
  T/C: 164 % of control and 190 % of control
[9]
  T/C: 211 % of control
dose: 100.0 mg/kg/injection, schedule: Q01DX009 (ip), vehicle: water
  T/C: 200 % of control and 207 % of control
dose: 120.0 mg/kg/injection, schedule: Q01DX009 (ip), vehicle: water
  T/C: 111 % of control
dose: 124.0 mg/kg/injection, schedule: Q01DX009 (ip), vehicle: water
  T/C: 105 % of control

## O=c1[nH]cc(CS)c(=O)[nH]1
dose: 12.5 mg/kg/injection, schedule: Q01DX009 (ip), vehicle: saline
  T/C: 102 % of control
[7]
  T/C: 108 % of control
[8]
  T/C: 100 % of control and 102 % of control
[9]
  T/C: 103 % of control

## CN1CCN(C(=O)Nc2ccc(N=Nc3ccccc3)cc2)CC1
dose: 12.5 mg/kg/injection, schedule: Q01DX009 (ip), vehicle: saline sonified
  T/C: 105 % of control
dose: 25.0 mg/kg/injection, schedule: Q01DX009 (ip), vehicle: saline sonified
  T/C: 100 % of control

## Cn1c(NC(=O)C(F)(F)F)cc(=O)n(C)c1=O
[10]
  T/C: 102 % of control
[11]
  T/C: 95 % of control
[12]
  T/C: 101 % of control

## COc1cc(OC)c(NC(=O)ON2C(=O)c3ccccc3C2=O)cc1Cl
[13]
  T/C: 119 % of control
[14]
  T/C: 122 % of control
[15]
  T/C: 122 % of control
[16]
  T/C: 110 % of control

## C[Si](C)(CCl)N[Si](C)(C)CCl
dose: 50.0 mg/kg/injection, schedule: Q01DX009 (ip), vehicle: suspension in saline
  T/C: 100 % of control
[16]
  T/C: 100 % of control
dose: 100.0 mg/kg/injection, schedule: Q01DX009 (ip), vehicle: suspension in saline
  T/C: 98 % of control
[17]
  T/C: 96 % of control
dose: 200.0 mg/kg/injection, schedule: Q01DX009 (ip), vehicle: suspension in saline
  T/C: 105 % of control
dose: 400.0 mg/kg/injection, schedule: Q01DX009 (ip), vehicle: saline with Tween-80
  T/C: 122 % of control

## CO/C=C/c1cc2c(cc1Br)OCO2
[18]
  T/C: 105 % of control
[19]
  T/C: 111 % of control
[20]
  T/C: 97 % of control

## CCNC(=O)/C=C/c1cccc(Br)c1
[10]
  T/C: 105 % of control
[11]
  T/C: 105 % of control
[12]
  T/C: 98 % of control

## O=S(=O)(Nc1ccc(NS(=O)(=O)c2ccccc2)cc1)c1ccccc1
[21]
  T/C: 100 % of control
[22]
  T/C: 109 % of control
[23]
  T/C: 100 % of control

## CCCCCCCCCCCCCCCC(=O)N(CCCCN(CCCN(C)C)C(=O)CCCCCCCCCCCCCCC)CCCN(C)C
[13]
  T/C: 90 % of control
[14]
  T/C: 90 % of control

## CSC(=N\N=C\c1ccc(N(C)C)cc1)/N=C/N(C)C
[18]
  T/C: 100 % of control
[19]
  T/C: 103 % of control
[20]
  T/C: 103 % of control

## Nc1c(Cl)cc(C(=O)O)cc1Cl
[14]
  T/C: 95 % of control
[15]
  T/C: 90 % of control
[16]
  T/C: 87 % of control
[17]
  T/C: 100 % of control

## C=CCCC1CN2CCc3cc(OC)c(OC)cc3C2CC1=O (stereo not drawn)
[4]
  T/C: 113 % of control
[5]
  T/C: 103 % of control
[6]
  T/C: 105 % of control

## NC(=S)N/N=C1/C(=O)N(c2ccccc2)C(=O)C1C(=O)Nc1ccccc1 (stereo not drawn)
[1]
  T/C: 100 % of control
[2]
  T/C: 106 % of control
[3]
  T/C: 98 % of control

## COC(=O)C1C(=O)OC(C(C)(C)Cl)C1C(=O)OC (stereo not drawn)
dose: 100.0 mg/kg/injection, schedule: Q04DX002 (ip), vehicle: saline with Tween-80
  T/C: 99 % of control
dose: 200.0 mg/kg/injection, schedule: Q04DX002 (ip), vehicle: saline with Tween-80
  T/C: 98 % of control
dose: 400.0 mg/kg/injection, schedule: Q04DX002 (ip), vehicle: saline with Tween-80
  T/C: 101 % of control

## CC1=NN(C)C(=O)C1
[21]
  T/C: 102 % of control
[22]
  T/C: 101 % of control
[23]
  T/C: 104 % of control
dose: 400.0 mg/kg/injection, schedule: Q04DX003 (ip), vehicle: saline
  T/C: 111 % of control

## CCc1nc2ccccc2c(=O)n1C
[13]
  T/C: 100 % of control
[14]
  T/C: 100 % of control
[15]
  T/C: 95 % of control

## CSC1(C)C(=O)Nc2cccc([N+](=O)[O-])c21 (stereo not drawn)
[1]
  T/C: 100 % of control
[2]
  T/C: 93 % of control
[3]
  T/C: 100 % of control

## CCOC(=O)c1c(C(C)=O)cnc2c(C#N)cnn12
[10]
  T/C: 98 % of control
[11]
  T/C: 98 % of control
[12]
  T/C: 91 % of control

## O=C1C(c2ccccc2)=c2c(c3ccccc3c3ccccc23)=C1c1ccccc1
dose: 50.0 mg/kg/injection, schedule: Q01DX005 (ip), vehicle: Klucel (hydroxypropylcellulose) (HPC)
  T/C: 99 % of control
dose: 50.0 mg/kg/injection, schedule: Q01DX005 (ip), vehicle: Klucel + Tween-80
  T/C: 89 % of control and 95 % of control
dose: 100.0 mg/kg/injection, schedule: Q01DX005 (ip), vehicle: Klucel (hydroxypropylcellulose) (HPC)
  T/C: 98 % of control
dose: 100.0 mg/kg/injection, schedule: Q01DX005 (ip), vehicle: Klucel + Tween-80
  T/C: 89 % of control and 104 % of control
dose: 200.0 mg/kg/injection, schedule: Q01DX005 (ip), vehicle: Klucel (hydroxypropylcellulose) (HPC)
  T/C: 95 % of control
dose: 200.0 mg/kg/injection, schedule: Q01DX005 (ip), vehicle: Klucel + Tween-80
  T/C: 106 % of control
